Test results as given in patent publication US20250109141A1, “BRD4 PROTEIN DEGRADER COMPOUND, AND PREPARATION METHOD AND USE THEREOF” (Miracure Biotechnology Limited, priority 2023, published 2025).
Where two headings read alike, the source gives them in different places.

Tests used:
22RV1 = assay: Cell proliferation assay (CellTiterGlo, 72 h), 22RV1; assay type: cell-based; conditions: read-out: 22Rv1 ATP average IC50
Protocol: All incubations were performed at 37° C. in a humidified carbon dioxide incubator.
(§1) The cells were seeded in a 96-well plate (white wall/transparent bottom) at 5000 cells/well and cultured overnight.
(§2) On day 2, A stock solution of the compound at a concentration of 10 mM was subjected to an 8-fold serial dilution to obtain 8 concentration points. 2 μL of the compound solution at each concentration point was added to 98 μL of fresh medium, and the mixture was mixed homogeneously. Then, 5 μL of the compound solution diluted in the medium at each concentration point was added to 100 μL of overnight medium containing the cells, and 2 replicates were set for each concentration. The mixture was cultured for 72 h.
(§3) After 72 h of compound treatment, the plate was equilibrated to room temperature, 100 μL of CellTiterGlo (Promega) was added. The mixture was mixed homogeneously for 2 min, left to stand at room temperature for 10 min, and then read for luminescence values on a SpectraMax M5 microplate reader to evaluate cell viability. The positive control was 1% Tween-20 and the negative control was 0.1% DMSO. IC50 was generated by 4-parameter non-linear regression fitting in GraphPad Prism.

LNCaP = assay: Cell proliferation assay (CellTiterGlo, 72 h), LNCaP; assay type: cell-based; conditions: LNCap cells, 72 h compound treatment, read-out: LNCap ATP average IC50
Protocol: The cell line used was 22RV1 or LNCaP, and the medium was RPMI-1640 containing 10% FBS and antibiotics. All incubations were performed at 37° C. in a humidified carbon dioxide incubator.
On day 1, cells were digested with 0.25% trypsin (containing EDTA) and collected by centrifugation.
as §1, §2, §3

[1] = Homo sapiens, 22Rv1 cells, 72 h compound treatment, CellTiterGlo

| SMILES | IC50 (22RV1; Homo sapiens, 22Rv1, 72 h) [nM] | IC50 (LNCaP; Homo sapiens) [nM] | IC50 (22RV1; [1]) [nM] | also measured |
| --- | --- | --- | --- | --- |
| Cc1sc2c(c1C)C(c1ccc(C#CCN)cc1)=N[C@@H](CC(N)=O)c1nnc(C)n1-2 [Compound 9001] | > 500 | 200 to 500 | – | – |
| Cc1sc2c(c1C)C(c1ccc(C#CC(N)=O)cc1)=N[C@@H](CC(=O)OC(C)(C)C)c1nnc(C)n1-2 [Compound 9002] | – | < 50 | < 50 | – |
| Cc1sc2c(c1C)C(c1ccc(-c3cc(=O)[nH]o3)cc1)=N[C@@H](CC(=O)OC(C)(C)C)c1nnc(C)n1-2 [Compound 9003] | – | 50 to 200 | > 500 | – |
| Cc1sc2c(c1C)C(c1ccc(C#CCN)cc1)=N[C@@H](CC(=O)NO)c1nnc(C)n1-2 [Compound 9010] | > 500 | > 500 | – | – |
| Cc1sc2c(c1C)C(c1ccc(C#CCN)cc1)=N[C@@H](CC(=O)Nc1ccc(O)cc1)c1nnc(C)n1-2 [Compound 9012] | 200 to 500 | 50 to 200 | – | – |
| CCNC(=O)C[C@@H]1N=C(c2ccc(C#CCN)cc2)c2c(sc(C)c2C)-n2c(C)nnc21 [Compound 9013] | 200 to 500 | < 50 | – | – |
| Cc1sc2c(c1C)C(c1ccc(C#CC(=O)NN)cc1)=N[C@@H](CC(=O)OC(C)(C)C)c1nnc(C)n1-2 [Compound 9017] | – | < 50 | 200 to 500 | – |
| Cc1sc2c(c1C)C(c1ccc(C#CCN)cc1)=N[C@@H](CC(=O)NN)c1nnc(C)n1-2 [Compound 9018] | > 500 | > 500 | – | – |
| COC(=O)C#Cc1ccc(C2=N[C@@H](CC(=O)OC(C)(C)C)c3nnc(C)n3-c3sc(C)c(C)c32)cc1 [Compound 9019] | – | 50 to 200 | 200 to 500 | – |
| Cc1sc2c(c1C)C(c1ccc(C#CC(=O)O)cc1)=N[C@@H](CC(=O)OC(C)(C)C)c1nnc(C)n1-2 [Compound 9020] | – | > 500 | > 500 | – |
| Cc1sc2c(c1C)C(c1ccc(C#CCN)cc1)=N[C@@H](CC(=O)O)c1nnc(C)n1-2 [Compound 9021] | > 500 | 50 to 200 | – | – |
| Cc1sc2c(c1C)C(c1ccc(C#CC(=O)N(C)N)cc1)=N[C@@H](CC(=O)OC(C)(C)C)c1nnc(C)n1-2 [Compound 9023] | – | > 500 | > 500 | – |
| Cc1sc2c(c1C)C(c1ccc(C#CCN)cc1)=N[C@@H](CC(=O)N(C)O)c1nnc(C)n1-2 [Compound 9025] | 200 to 500 | 50 to 200 | – | – |
| Cc1sc2c(c1C)C(c1ccc(C#CCN)cc1)=N[C@@H](CC(=O)N(C)N)c1nnc(C)n1-2 [Compound 9026] | > 500 | > 500 | – | – |
| C#CCNC(=O)C[C@@H]1N=C(c2ccc(C#CCN)cc2)c2c(sc(C)c2C)-n2c(C)nnc21 [Compound 9038] | 50 to 200 | 200 to 500 | – | – |
| Cc1sc2c(c1C)C(c1ccc(C#CCON)cc1)=N[C@@H](CC(=O)OC(C)(C)C)c1nnc(C)n1-2 [Compound 9041] | – | < 50 | 50 to 200 | – |
| CC(=O)NNCC#Cc1ccc(C2=N[C@@H](CC(=O)OC(C)(C)C)c3nnc(C)n3-c3sc(C)c(C)c32)cc1 [Compound 9046] | – | 50 to 200 | < 50 | – |
| CC(=O)NN(C)CC#Cc1ccc(C2=N[C@@H](CC(=O)OC(C)(C)C)c3nnc(C)n3-c3sc(C)c(C)c32)cc1 [Compound 9047] | – | > 500 | < 50 | – |
| CCNC(=O)C[C@@H]1N=C(c2ccc(C#CCN)cc2)c2cc(OC)ccc2-n2c(C)nnc21 [Compound 9051] | > 500 | > 500 | – | – |
| Cc1sc2c(c1C)C(c1ccc(-c3cc(=O)n(C)o3)cc1)=N[C@@H](CC(=O)OC(C)(C)C)c1nnc(C)n1-2 [Compound 9053] | – | 50 to 200 | 50 to 200 | – |
| CONC(=O)C#Cc1ccc(C2=N[C@@H](CC(=O)OC(C)(C)C)c3nnc(C)n3-c3sc(C)c(C)c32)cc1 [Compound 9055] | – | < 50 | < 50 | – |
| Cc1sc2c(c1C)C(c1ccc(-c3cc(CN)nn3C)cc1)=N[C@@H](CC(=O)OC(C)(C)C)c1nnc(C)n1-2 [Compound 9058] | – | 200 to 500 | > 500 | – |

| SMILES | IC50 (22RV1; Homo sapiens, 22Rv1, 72 h) [nM] | IC50 (LNCaP; Homo sapiens) [nM] | IC50 (22RV1; [1]) [nM] | also measured |
| --- | --- | --- | --- | --- |
| Cc1sc2c(c1C)C(c1ccc(-c3nc(CN)cs3)cc1)=N[C@@H](CC(=O)OC(C)(C)C)c1nnc(C)n1-2 [Compound 9059] | – | < 50 | 50 to 200 | – |
| Cc1sc2c(c1C)C(c1ccc(-c3ccoc3CN)cc1)=N[C@@H](CC(=O)OC(C)(C)C)c1nnc(C)n1-2 [Compound 9060] | – | 50 to 200 | 200 to 500 | – |
| Cc1sc2c(c1C)C(c1ccc(N3CC(CN)C3)cc1)=N[C@@H](CC(=O)OC(C)(C)C)c1nnc(C)n1-2 [Compound 9061] | – | 200 to 500 | 50 to 200 | – |
| Cc1sc2c(c1C)C(c1ccc(-c3ccc(CN)n3C)cc1)=N[C@@H](CC(=O)OC(C)(C)C)c1nnc(C)n1-2 [Compound 9062] | – | 50 to 200 | 50 to 200 | – |
| COc1ccc2c(c1)C(c1ccc(C#CCN)cc1)=N[C@@H](CC(=O)N(C)CCO)c1nnc(C)n1-2 [Compound 9063] | > 500 | > 500 | – | – |
| CONCC#Cc1ccc(C2=N[C@@H](CC(=O)OC(C)(C)C)c3nnc(C)n3-c3sc(C)c(C)c32)cc1 [Compound 9064] | – | < 50 | < 50 | – |
| Cc1sc2c(c1C)C(c1ccc(N3CC4(CC(N)C4)C3)cc1)=N[C@@H](CC(=O)OC(C)(C)C)c1nnc(C)n1-2 [Compound 9066] | – | < 50 | 200 to 500 | – |
| Cc1sc2c(c1C)C(c1ccc(-c3ccc(CN)s3)cc1)=N[C@@H](CC(=O)OC(C)(C)C)c1nnc(C)n1-2 [Compound 9067] | – | 50 to 200 | 50 to 200 | – |
| Cc1sc2c(c1C)C(c1ccc(-c3ncc(CN)s3)cc1)=N[C@@H](CC(=O)OC(C)(C)C)c1nnc(C)n1-2 [Compound 9068] | – | 50 to 200 | 50 to 200 | – |
| CCOC(=O)C[C@@H]1N=C(c2ccc(C#CCN)cc2)c2cc(OC)ccc2-n2c(C)nnc21 [Compound 9069] | < 50 | < 50 | – | – |
| COc1ccc2c(c1)C(c1ccc(C#CCN)cc1)=N[C@@H](CC(=O)O)c1nnc(C)n1-2 [Compound 9070] | > 500 | > 500 | – | – |
| Cc1sc2c(c1C)C(c1ccc(-c3csc(CN)n3)cc1)=NC(CC(=O)OC(C)(C)C)c1nnc(C)n1-2 (stereo not drawn) [Compound 9072] | – | < 50 | 50 to 200 | – |
| Cc1sc2c(c1C)C(c1ccc(-c3cnc(CN)s3)cc1)=NC(CC(=O)OC(C)(C)C)c1nnc(C)n1-2 (stereo not drawn) [Compound 9073] | – | < 50 | 50 to 200 | – |
| Cc1sc2c(c1C)C(c1ccc(-c3nc(CN)cs3)cc1)=N[C@@H](CC(=O)OC(C)(C)C)c1nnc(C)n1-2 [Compound 9074] | – | – | – | IC50 (22RV1; 22Rv1 cells, 72 h compound treatment, CellTiterGlo): 50 to 200 nM; IC50 (LNCaP): < 50 nM |
| Cc1sc2c(c1C)C(c1ccc(C#CCN)cc1)=N[C@@H](CC(=O)N(C)CCO)c1nnc(C)n1-2 [Compound 9075] | 200 to 500 | < 50 | – | – |
| Cc1sc2c(c1C)C(c1ccc(C#CCN)cc1)=N[C@@H](CC(=O)NCCO)c1nnc(C)n1-2 [Compound 9076] | > 500 | 200 to 500 | – | – |
| Cc1sc2c(c1C)C(c1ccc(/C=C/CON)cc1)=N[C@@H](CC(=O)OC(C)(C)C)c1nnc(C)n1-2 [Compound 9083] | – | – | < 50 | – |
| Cc1sc2c(c1C)C(c1ccc(-c3ccc(CN)cc3)cc1)=NC(CC(=O)OC(C)(C)C)c1nnc(C)n1-2 (stereo not drawn) [Compound 9084] | – | 50 to 200 | 200 to 500 | – |
| Cc1sc2c(c1C)C(c1ccc(-c3cccc(CN)c3)cc1)=NC(CC(=O)OC(C)(C)C)c1nnc(C)n1-2 (stereo not drawn) [Compound 9085] | – | 50 to 200 | > 500 | – |
| COc1ccc2c(c1)C(c1ccc(/C=C/CON)cc1)=N[C@@H](CC(=O)OC(C)(C)C)c1nnc(C)n1-2 [Compound 9092] | > 500 | – | – | – |
| Cc1sc2c(c1C)C(c1ccc(N3CC(CO)C3)cc1)=N[C@@H](CC(=O)OC(C)(C)C)c1nnc(C)n1-2 [Compound 9105] | – | – | 200 to 500 | – |
| Cc1sc2c(c1C)C(c1ccc(C#CCN)cc1)=N[C@@H](CC13OCC(C)(CO1)CO3)c1nnc(C)n1-2 [Compound 9113] | – | – | – | IC50 (22RV1): 200 to 500 nM |
